Values quoted from earlier work in patent US20110033519A1, “Device with Aromatase Inhibitor for the Treatment and Prevention of Uterine Fibroids and Method of Use” (priority 2009, published 2011).
Read-outs that look alike come from different tables or passages of the source.

How the values were obtained:
[1] = test system: fibroids; conditions: three months
[2] = test system: human sperm; conditions: incubated in a solution of copper ions; after 120 minutes

Compound: N#Cc1ccc(C(c2ccc(C#N)cc2)n2cncn2)cc1 [Letrozole]
- reduction in fibroid volume ([1]; study of 35 women, 2.5 mg per day orally): 45%
- reduction in fibroid volume ([1]; trial of 16 women, oral, 5 mg/day): 47%

Compound: copper ions
- human sperm immotile [2]: Ninety-five

Compound: CC(C)(C#N)c1cc(Cn2cncn2)cc(C(C)(C)C#N)c1 [Anastrozole]
- reduction in fibroid volume ([1]; oral, 1 mg/day): 56%
